Results as given in US20150290234A1, “TARGETED INTRACELLULAR DELIVERY OF ANTIVIRAL AGENTS” (BBB Holding B.V., priority 2007, published 2015).
≈ marks a conversion by molar mass, not a printed value. Like-named read-outs stand apart in the source and are kept apart here.

Legend:
[1] = biological target: diphtheria toxin receptor (DTR) expressed on LLC-PK1 cells (porcine kidney epithelial cells) (porcine) (UniProt Q01580); assay: cell-based or functional assay
LLC-PK1 cells [2] = assay: Cell uptake and localization on coverslips, fluorescence microscope; format: cell-based, porcine; details: FIG. 1
Procedure: (§1) Cells with a known expression of the DTR were used from several species and origins, including porcine kidney epithelial cells (LLC-PK1), bovine brain capillary endothelial cells (BCEC), monkey kidney fibroblast cells (COS-1), and human glioblastoma cells. In particular, LLC-PK1 cells were incubated for 1 h in 24-wells plates on 400 microliter DMEM+FCS supplemented with 100 microgram/ml heparin, before 5 microgram CRM197-FITC or HRP-FITC was added to the well. Two hours later the cells were washed 3 times and the cells were lysated in 100 microliter 0.1 N NaOH, and fluorescence was determined at 480/530 nm in a fluostar plate reader. Cell protein per well was determined with a Biorad DC assay and fluorescence in the cell lysate was calculated per mg cell protein. In a separate group of cells, an access of 100 microgram free CRM197 was added to the well, 30 minutes before the CRM197-FITC conjugate was added to the medium. […] In a separate set of experiments, LLC-PK1 cells were cultured in similar conditions on coverslips and exposed to CRM197-FITC, HRP-FITC or sodium fluorescein. After fixation and mounting with vectashield with DAPI for nuclear staining, the coverslips were analyzed on a fluorescence microscope and photographed. […] Identical results were found on BCEC, COS-1 and human glioblastoma cells, also after several time points (up to 24 hours after exposure).

[3] = Pharmacokinetics of sodium fluorescein after intravenous bolus; details: rats, 1 mg intravenous bolus
[4] = cited from earlier work
influenza = details: therapy started within 48 hours of the onset of symptoms; cited from earlier work
[5] = Plasma pharmacokinetics of FITC-labelled protein after intravenous bolus; details: hamster, i.v. 1 mg FITC-labelled protein, calculated sixty minutes after injection
[6] = biological target: T1, DTR expressed on LLC-PK1 cells (Sus scrofa, UniProt Q01580); assay: Receptor-specific cell uptake, fluorescence in cell lysate; format: cell-based, porcine; details: LLC-PK1, 5 microgram per well, 2 hours
T1 construct: Cells with a known expression of the DTR were used from several species and origins; endogenous in cells; host or cells: LLC-PK1 (porcine kidney epithelial cells)
Procedure: as §1

[7] = Biodistribution of FITC conjugates; details: hamster, 90 minutes after i.v. injection, FIG. 4
CMV-infected cells = details: cited from earlier work
viral DNA polymerase = details: cited from earlier work
[8] = cited from earlier work; remark: listed apart in the source
LLC-PK1 cells [9] = assay: MTT-assay; details: 10 mg/mL RBV, after 5 h, found to be toxic
YFV = assay: microbe, parasite or virus in culture; format: cell-based; details: Yellow fever virus, Vero, 120 h, read-out: EC50 for inhibition of RNA synthesis [EC50 RNA]
HRP-PEG-liposomes = biological target: T2, HRP-PEG-liposomes (UniProt P00433 31-338); assay: fluorescence microscopy of LLC-PK1 cells after 4 hours incubation
T2 sequence (looked up): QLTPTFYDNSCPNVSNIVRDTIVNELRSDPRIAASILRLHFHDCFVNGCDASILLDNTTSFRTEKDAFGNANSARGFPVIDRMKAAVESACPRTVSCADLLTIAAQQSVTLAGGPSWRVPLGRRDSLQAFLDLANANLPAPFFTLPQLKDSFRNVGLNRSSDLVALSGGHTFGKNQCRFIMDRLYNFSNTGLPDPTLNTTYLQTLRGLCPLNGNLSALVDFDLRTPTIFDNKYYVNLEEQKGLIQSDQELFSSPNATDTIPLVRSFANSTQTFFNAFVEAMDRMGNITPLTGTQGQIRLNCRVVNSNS

[10] = biological target: T3, HRP-FITC (horseradish peroxidase labelled with FITC) (UniProt P00433 31-338); assay: uptake by LLC-PK1 cells for 2 h, fluorescence of the cell lysate; fluorescence microscopy also showed no signal
T3 construct: also called HRP-FITC conjugate
T3 sequence (looked up): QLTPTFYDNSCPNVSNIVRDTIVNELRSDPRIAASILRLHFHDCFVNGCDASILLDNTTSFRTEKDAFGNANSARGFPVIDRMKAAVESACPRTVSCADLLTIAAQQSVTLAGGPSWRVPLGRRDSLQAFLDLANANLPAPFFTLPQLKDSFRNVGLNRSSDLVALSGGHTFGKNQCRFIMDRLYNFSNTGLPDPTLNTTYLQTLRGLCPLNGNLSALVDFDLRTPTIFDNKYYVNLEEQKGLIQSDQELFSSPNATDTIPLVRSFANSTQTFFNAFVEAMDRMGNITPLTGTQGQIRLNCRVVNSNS

[11] = biological target: T3, HRP-FITC (horseradish peroxidase …); assay: fluorescence microscopy of cells on coverslips
[12] = 500 mg of probenecid every six hours

CRM197-FITC conjugate (from UniProt P00588 33-567) (ligand)
cell uptake: CRM197-FITC in the cell lysate per mg cell protein after 2 hours (microgram per mg cell protein) [1]: 0.54

O=C([O-])c1ccccc1-c1c2ccc(=O)cc-2oc2cc([O-])ccc12.[Na+].[Na+] [sodium fluorescein]
fluorescence signal / uptake in cells (LLC-PK1 cells [2]): No fluorescence signal was found | AUC [3]: 13 microgram*min/ml | half-life [3]: 0.583 h

CCOC(=O)C1=C[C@@H](OC(CC)CC)[C@H](NC(C)=O)[C@@H](N)C1 [Oseltamivir, (3R,4R,5S)-4-acetylamino-5-amino-3-(1-ethylpropoxy)-1-cyclohexene-1-carboxylic acid ethyl ester]
change of half-life with probenecid [4, 12]: doubled | change of peak plasma concentration (Cmax) with probenecid [4, 12]: doubled | increase of overall systemic exposure (AUC) with probenecid [4, 12]: 2.5 fold | (elimination) half-life ([4]; in vivo): 6 to 10 h | oral bioavailability [4]: 75%

CC(=O)NC1C(NC(=N)N)C=C(C(=O)O)OC1C(O)C(O)CO (centres unmarked) [Zanamivir, 5-acetamido-4-guanidino-6-(1,2,3-trihydroxypropyl)-5,6-dihydro-4H-pyran-2-carboxylic acid]
(elimination) half-life ([4]; in vivo): 2.5 to 5.1 h | protein binding in plasma ([4]; in vivo): < 10% | oral bioavailability [4]: 2% | reduction of time to symptom resolution (influenza): 1.5 days

HRP-FITC: horseradish peroxidase (HRP) labelled with FITC as a control protein
fluorescence signal / uptake in cells (LLC-PK1 cells [2]): No fluorescence signal was found | plasma half-life [5]: 0.633 h | conjugate found in the cell lysates [6]: No HRP-FITC was found | accumulation in tissues (brain, heart, lung, liver, spleen, kidney) [7]: not (or hardly) detectable in these tissues

Nc1nc2c(ncn2COCCOP(=O)(O)OP(=O)(O)OP(=O)(O)O)c(=O)[nH]1 [Aciclo-GTP]
half-life compared to GCV-TP in infected cells (CMV-infected cells): four- to five-fold shorter | affinity to viral relative to cellular polymerase (viral DNA polymerase): approximately 100 times

Nc1nc(O)c2ncn(COC(CO)CO)c2n1 [ganciclovir]
half-life ([4]; depending on renal function): 2 to 6 h | elimination time in end-stage renal disease ([4]; end-stage renal disease): over 24 hours | absorption of the oral form, fasting ([4]; fasting): about 5% | concentration in the central nervous system relative to plasma level ([4]; in vivo): about 50 % of the plasma level | plasma drug eliminated unchanged in the urine ([4]; in vivo): About 90% | oral bioavailability [4]: approximately 5% | absorption of the oral form, with food ([4]; with food): about 8%

Nc1nc2c(ncn2COCCO)c(=O)[nH]1 [Aciclovir]
protein binding in plasma ([4]; in vivo): 30% | oral bioavailability [4]: 10-20% | time of peak plasma concentration ([4]; orally administered): 1 to 2 h | water solubility [8]: poorly water soluble

NC(=O)c1ncn([C@@H]2O[C@H](CO)[C@@H](O)[C@H]2O)n1 [RBV, 1-beta-D-ribofuranosyl-1,2,4-triazole-3-carboxamide]
absorption from the GI tract with a fatty meal ([4]; fatty meal): about 75% | absorption from the GI tract ([4]; in vivo): about 45% | fraction of absorbed drug excreted into the urine unchanged ([4]; in vivo): About a third | mean half-life for multiple doses in the body ([4]; multiple doses): about 12 days | half-life after single dose ([4]; single dose): 0.5 h | cell viability (LLC-PK1 cells [9]): 60% | EC50 (YFV): 12.3 ± 5.6 mg/L (≈ 50.4 µM)

B1: diphtheria toxin receptor (DTR) expressed on LLC-PK1 cells (porcine kidney epithelial cells) (receptor, UniProt Q01580 63-148, looked up)
chain: DLEEADLDLLRADFSSKPQALATPSKEERGKRKKKGKGLGKKRDPCLRKYKDFCIHGECKYVKELRAPSCICHPGYHGERCHGLSL
notes: whole, on cells; also called HB-EGF
binding result (HRP-PEG-liposomes): no binding | binding result [10]: no binding

B2: diphtheria toxin receptor (DTR) on bovine brain capillary endothelial cells (BCEC) (receptor)
chain: DLEEANLDLFRAAFSSKPQALATPSKEERGKRKKKGKGLGKKRNPCLRRYKDFCIHGECKYVKELRVPTCICHPGYHGERCHGLSL
notes: whole, on cells; also called HB-EGF precursor
binding result [11]: no binding

B3: diphtheria toxin receptor (DTR) on human glioblastoma cells (receptor, UniProt Q99075 63-148, looked up)
chain: DLQEADLDLLRVTLSSKPQALATPNKEEHGKRKKKGKGLGKKRDPCLRKYKDFCIHGECKYVKELRAPSCICHPGYHGERCHGLSL
notes: as for B2
binding result [11]: no binding
